Source: patent US20120058085A1, “Deuterium Modified Benzimidazoles” (priority 2009, published 2012)
Read-outs that look alike come from different tables or passages of the source.

Assay: Evaluation of Metabolic Stability in Human Liver Microsomes
Format: in vitro ADME
Details: for percentage increase in half-life in going from clemizole to the test compound, run A / percentage increase in half-life in going from clemizole to the test compound, run B / percentage increase in half-life in going from clemizole to the test compound, run C / percentage increase in half-life in going from clemizole to the test compound, run D / percentage increase in half-life in going from clemizole to the test compound, Average: HLM, relative to clemizole; for half-life: human, microsomes
Description: Human liver microsomes (20 mg/mL) are obtained from Xenotech, LLC (Lenexa, KS). β-nicotinamide adenine dinucleotide phosphate, reduced form (NADPH), magnesium chloride (MgCl2), and dimethyl sulfoxide (DMSO) are purchased from Sigma-Aldrich.
Determination of Metabolic Stability: 7.5 mM stock solutions of test compounds are prepared in DMSO. The 7.5 mM stock solutions are diluted to 12.5 μM in acetonitrile (ACN). The 20 mg/mL human liver microsomes are diluted to 0.625 mg/mL in 0.1 M potassium phosphate buffer, pH 7.4, containing 3 mM MgCl2. The diluted microsomes (375 μL) are added to wells of a 96-well deep-well polypropylene plate in triplicate. Ten to 40 μL of the 12.5 μM test compound is added to the microsomes and the mixture is pre-warmed for 10 minutes. Reactions are initiated by addition of 125 μL of pre-warmed NADPH solution. The final reaction volume is 0.5 mL and contains 0.5 mg/mL human liver microsomes, 0.25-1.0 μM test compound, and 2 mM NADPH in 0.1 M potassium phosphate buffer, pH 7.4, and 3 mM MgCl2. The reaction mixtures are incubated at 37° C., and 50 μL aliquots are removed at 0, 5, 10, 20, and 30 minutes and added to shallow-well 96-well plates which contain 50 μL of ice-cold ACN with internal standard to stop the reactions. The plates are stored at 4° C. for 20 minutes after which 100 μL of water is added to the wells of the plate before centrifugation to pellet precipitated proteins. Supernatants are transferred to another 96-well plate and analyzed for amounts of parent compound remaining by LC-MS/MS using an Applied Bio-systems API 4000 mass spectrometer. The same procedure is followed for the non-deuterated counterpart of the compound of Formula I and the positive control, 7-ethoxycoumarin (1 μM). Testing is done in triplicate.
Data analysis: The in vitro half-lives (t1/2s) for test compounds are calculated from the slopes of the linear regression of % parent remaining (In) vs incubation time relationship using the following formula:
in vitro t1/2=0.693/k, where k=-[slope of linear regression of % parent remaining(1n) vs incubation time]
Data analysis is performed using Microsoft Excel Software.
Four separate metabolic stability runs were performed in Human Liver Microsomes (HLM) for clemizole and for test compounds of the invention. […] The values in parenthesis in columns A through D and in the “Average” column indicate the percentage increase in half-life in going from clemizole to the test compound.

[1] = pH 7.4, HLM 0.5 mg/mL, 2 mM NADPH, 37° C., run A, read-out: t½ (min) A
[2] = pH 7.4, HLM 0.5 mg/mL, 2 mM NADPH, 37° C., run B, read-out: t½ (min) B
[3] = pH 7.4, HLM 0.5 mg/mL, 2 mM NADPH, 37° C., run C, read-out: t½ (min) C
[4] = pH 7.4, HLM 0.5 mg/mL, 2 mM NADPH, 37° C., run D, read-out: t½ (min) D
[5] = pH 7.4, HLM, average of runs A-D, read-out: Ave t½

Row | Compound | percentage increase in half-life in going from clemizole to the test compound, run A (run A) | percentage increase in half-life in going from clemizole to the test compound, run B (run B) | percentage increase in half-life in going from clemizole to the test compound, run C (run C) | percentage increase in half-life in going from clemizole to the test compound, run D (run D) | half-life [1] | half-life [2] | half-life [3] | half-life [4] | half-life [5] | percentage increase in half-life in going from clemizole to the test compound, Average (average of runs A-D)
1 | [2H]C([2H])(c1nc2ccccc2n1C([2H])([2H])c1ccc(Cl)cc1)N1C([2H])([2H])C([2H])([2H])C([2H])([2H])C1([2H])[2H] [Compound 110, 1-(4-Chlorophenyl-d2-methyl)-2-(d2-(2,2,3,3,4,4,5,5-d8-pyrrolidin-1-yl)methyl)-1H-benzo[d]imidazole] | (+18%) | (+30%) | (+34%) | (+38%) | 15.8 min | 18.2 min | 17.8 min | 17 min | 17.2 min | 
2 | [2H]C([2H])(c1ccc(Cl)cc1)n1c(CN2C([2H])([2H])C([2H])([2H])C([2H])([2H])C2([2H])[2H])nc2ccccc21 [Compound 106] | (+21%) | (+22%) | (+22%) | (+36%) | 16.2 min | 17.2 min | 16.2 min | 16.7 min | 16.6 min | 
3 | [2H]C1([2H])CCC([2H])([2H])N1Cc1nc2ccccc2n1Cc1ccc(Cl)cc1 [Compound 104] | (+15%) | (+16%) | (+17%) | (+27%) | 15.5 min | 16.3 min | 15.5 min | 15.6 min | 15.7 min | 
4 | [2H]C1([2H])N(Cc2nc3ccccc3n2Cc2ccc(Cl)cc2)C([2H])([2H])C([2H])([2H])C1([2H])[2H] [Compound 102, 1-(4-Chlorobenzyl)-2-((2,2,3,3,4,4,5,5-d8-pyrrolidin-1-yl)methyl)-1H-benzo[d]imidazole] | (+41%) | (+38%) | (+32%) | (+36%) | 18.9 min | 19.4 min | 17.6 min | 16.7 min | 18.2 min | 
5 | [2H]C([2H])(c1ccc(Cl)cc1)n1c(CN2CCCC2)nc2ccccc21 [Compound 100, 1-(4-Chlorophenyl-d2-methyl)-2-(pyrrolidin-1-ylmethyl)-1H-benzo[d]imid-azole] | (+2%) | (+0.3%) | (+4%) | (+13%) | 13.7 min | 14.1 min | 13.8 min | 13.8 min | 13.9 min | (+4%)
6 | Clc1ccc(Cn2c(CN3CCCC3)nc3ccccc32)cc1 [clemizole, 1-(p-chlorobenzyl)-2-(1-pyrrolidinylmethyl) benzimidazole, reference compound] |  |  |  |  | 13.5 min | 14 min | 13.3 min | 12.3 min | 13.3 min | 
7 | [2H]C([2H])(c1nc2ccccc2n1Cc1ccc(Cl)cc1)N1CCCC1 [Compound 101, 1-(4-Chlorobenzyl)-2-(d2-(pyrrolidin-1-yl)methyl)-1H-benzo[d]imidazole] | (+18%) | (+8%) | (+9%) | (+14%) | 15.9 min | 15.2 min | 14.4 min | 14 min | 14.9 min | 
8 | [2H]C([2H])(c1nc2ccccc2n1C([2H])([2H])c1ccc(Cl)cc1)N1CCCC1 [Compound 105, 1-(4-Chlorophenyl-d2-methyl)-2-(d2-(pyrrolidin-1-yl)methyl)-1H-benzo[d]imidazole] | (+0.9%) | (+6%) | (+6%) | (+13%) | 13.6 min | 14.9 min | 14 min | 13.9 min | 14 min | (+6%)
